Reference: ChEMBL document CHEMBL4425175, “Synthesis and preliminary in vitro kinase inhibition evaluation of new diversely substituted pyrido[3,4-g]quinazoline derivatives” (Bioorg Med Chem Lett, 2016)

Legend:
[1] = species on record: Sus scrofa; assay: Inhibition of porcine brain CK1delta/epsilon using RRKHAAIGpSAYSITA as substrate at 10 uM after 30 mins in presence of [gamma33P] ATP by scintillation counting
[2] = biological target: Glycogen synthase kinase-3 (Sus scrofa) (UniProt B2LUN4+I6LNT8); assay: Inhibition of porcine brain GSKalpha/beta using GS-1 as substrate at 10 uM after 30 mins in presence of [gamma33P] ATP by scintillation counting
[3] = biological target: Dual specificity protein kinase CLK1 (Homo sapiens) (UniProt P49759); assay: Inhibition of GST-fused human recombinant CLK1 expressed in Escherichia coli using GRSRSRSRSRSR peptide as substrate at 10 uM
Sequence of Dual specificity protein kinase CLK1 (Homo sapiens) (P49759 whole entry, looked up, the tested form may be a part): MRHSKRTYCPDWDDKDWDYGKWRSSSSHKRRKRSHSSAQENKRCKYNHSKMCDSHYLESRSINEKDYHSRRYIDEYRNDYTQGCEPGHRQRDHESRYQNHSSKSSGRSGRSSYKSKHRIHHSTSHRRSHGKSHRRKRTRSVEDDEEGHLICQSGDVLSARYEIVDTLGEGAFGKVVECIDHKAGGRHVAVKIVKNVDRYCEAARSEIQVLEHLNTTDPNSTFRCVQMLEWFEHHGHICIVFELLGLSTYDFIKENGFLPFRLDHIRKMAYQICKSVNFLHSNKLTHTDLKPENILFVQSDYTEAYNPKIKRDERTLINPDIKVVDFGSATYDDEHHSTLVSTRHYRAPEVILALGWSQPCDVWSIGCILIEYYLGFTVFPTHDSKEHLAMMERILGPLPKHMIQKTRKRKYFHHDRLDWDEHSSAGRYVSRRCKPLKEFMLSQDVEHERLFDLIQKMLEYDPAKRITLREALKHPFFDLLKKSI

[4] = biological target: Dual specificity tyrosine-phosphorylation-regulated kinase 1A (Rattus norvegicus) (UniProt Q63470); assay: Inhibition of GST-fused rat recombinant DYRK1A expressed in Escherichia coli using myelin basic protein as substrate at 10 uM after 30 mins in presence of [gamma33P] ATP by scintillation counting
[5] = biological target: Cyclin-dependent kinase 5/CDK5 activator 1 (Homo sapiens) (UniProt Q00535+Q15078); assay: Inhibition of human recombinant CDK5/p25 using histone1 as substrate at 10 uM after 30 mins in presence of [gamma33P] ATP by scintillation counting; type: protein-complex assay
Sequence of Cyclin-dependent kinase 5/CDK5 activator 1 (Homo sapiens) (Q00535 whole entry): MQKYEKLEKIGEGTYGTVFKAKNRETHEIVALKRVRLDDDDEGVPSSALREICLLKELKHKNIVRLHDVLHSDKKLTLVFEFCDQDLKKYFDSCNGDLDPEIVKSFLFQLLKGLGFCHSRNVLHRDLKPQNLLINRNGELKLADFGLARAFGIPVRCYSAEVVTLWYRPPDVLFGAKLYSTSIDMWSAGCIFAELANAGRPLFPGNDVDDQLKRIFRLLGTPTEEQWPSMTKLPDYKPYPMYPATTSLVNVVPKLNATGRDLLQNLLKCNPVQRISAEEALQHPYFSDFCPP
Sequence of Cyclin-dependent kinase 5/CDK5 activator 1 (Homo sapiens) (Q15078 99-307 partner limits assumed): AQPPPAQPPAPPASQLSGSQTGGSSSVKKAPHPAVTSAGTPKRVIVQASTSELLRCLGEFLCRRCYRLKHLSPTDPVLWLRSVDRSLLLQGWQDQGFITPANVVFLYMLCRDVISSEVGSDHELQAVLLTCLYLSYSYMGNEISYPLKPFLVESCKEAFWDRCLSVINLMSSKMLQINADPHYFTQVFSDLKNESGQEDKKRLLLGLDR

SMILES | inhibition [1] | inhibition [2] | inhibition [3] | inhibition [4] | inhibition [5]
Cc1c2cnccc2c(N)c2nc(N)ncc12 | 70% | 43% | 30% | 90% | 54%
Nc1ncc2c(-c3ccccc3)c3cnccc3c(N)c2n1 | 55% | 25% | 32% | 49% | 33%
Nc1ncc2c(Cc3ccccc3)c3cnccc3c(N)c2n1 | 76% | 12% | 29% | 49% | 4%
Nc1ncc2cc3cnccc3c([N+](=O)[O-])c2n1 | 91% | 75% | 98% | 95% | 44%
Nc1ncc2cc3cnccc3c(N)c2n1 | 76% | 54% | 100% | 99% | 70%

Now from value to molecule:

inhibition [1] | inhibition [2] | inhibition [3] | inhibition [4] | inhibition [5] | SMILES
34% | 41% | 28% | 76% | 0% | Nc1ncc2c(Br)c3cnccc3c([N+](=O)[O-])c2n1
87% | 98% | 31% | 80% | 96% | CCc1c2cnccc2c([N+](=O)[O-])c2nc(N)ncc12
64% | 14% | 37% | 40% | 2% | Nc1ncc2c(Cc3ccccc3)c3cnccc3c([N+](=O)[O-])c2n1
84% | 79% | 31% | 65% | 61% | CCc1c2cnccc2c(N)c2nc(N)ncc12
57% | 100% | 31% | 86% | 91% | CCCCc1c2cnccc2c([N+](=O)[O-])c2nc(N)ncc12
49% | 74% | 30% | 53% | 25% | Nc1ncc2c(-c3ccccc3)c3cnccc3c([N+](=O)[O-])c2n1
42% | 34% | 31% | 52% | 0% | CCCCc1c2cnccc2c(N)c2nc(N)ncc12
83% | 78% | 30% | 82% | 88% | Cc1c2cnccc2c([N+](=O)[O-])c2nc(N)ncc12
